Data on one molecule can be found in patent US20150210741A1, “JAGARICIN DERIVATIVES AND THEIR USE AS FUNGICIDE OR ANTITUMOR AGENT” (Leibniz-Institut Für Naturstoff-Forschung Und …, priority 2012, published 2015).

The nature of series [1]: Cytotoxic assay. It is filed as cell-based. The conditions noted are these: human, HeLa cells (human cervix carcinoma). The protocol: (§1) 50 μL of different concentrated jagaricin solutions were each pipetted into a pierced hole (9 mm diameter) within an agar plate that was inoculated with the test strains C. albicans, A. fumigatus and A. terreus, respectively. After incubation at 24° C. over night the inhibition zone was measured. The antiproliferative and cytotoxic assay were performed as previously described (Abdou, R. et al., Phytochemistry, 2009. 71(1): p. 110-6).

Series [2] has as its system mushroom tissue. The series can be described thus: Application of purified jagaricin on mushroom tissue. On the set-up: species or system Agaricus bisporus. Conditions: purified jagaricin applied to mushroom tissue.
Series [3] deals with bacteria. Nature of the series: Antibacterial activity (data not shown). It is filed as cell-based.
In series [4] the test system is A. fumigatus. The series can be described thus: Agar diffusion antifungal bioactivity test. It is filed as cell-based. The conditions noted are these: Aspergillus fumigatus. On the procedure:
(§2) Janthinobacterium agaricidamnosum (DSM 9628) was retrieved from the German collection of microorganisms (DSM). The bacteria were cultured in nutrient media (605 DSM without NaCl; 1 g/L beef extract, 2 g/L yeast extract, 5 g/L peptone, 15 g/L agar). Plates and liquid cultures (shaken at 150 rpm in baffled flasks) were grown at 22° C. and 28° C., respectively. During screening plates and liquid cultures of modified nutrient agar (additional 4 g/L chitin, 100 g/L mushroom cubes), M9 (6 g/L Na2HPO4, 3 g/L KH2PO4, 0.5 g/L NaCl, 2 g/L NH4Cl, 4 g/L glucose, […], 2 mM MgSO4, 15 g/L agar), MS (20 g/L mannite, 20 g/L soy flour, 20 g/L agar) and modified VK (5 g/L glycine, 10 g/L yeast extract, 10 g/L glucose, 10 g/L corn steep, 10 g/L CaCO3, 15 g/L agar pH 6.7-7.0) media were used. For the production of jagaricin J. agaricidamnosum was grown in modified VK medium. The selection of positive J. agaricidamnosum mutants was carried out on nutrition agar supplemented with 50 μg/mL kanamycin. For the construction of pKG01, Escherichia coli Top 10 cells and E. coli ER2925 cells were used. E. coli was cultured in LB medium (10 g/L tryptone, 5 g/L yeast extract, 5 g/L NaCl, 1 g/L glucose) supplemented with 50 μg/mL kanamycin. Candida albicans, Aspergillus fumigatus and A. terreus were used for the bioactivity tests and they were cultivated on malt agar (C. albicans; 40 g/L malt extract, 4 g/L yeast extract, 15 g/L agar, pH 5.7-6.0) and potato glucose agar (A. fumigatus and A. terreus; 4 g/L potato starch infusion, 20 g/L dextrose, 15 g/L agar) plates, respectively.
as §1
For orientation: Agar diffusion results depend on both activity and mobility in agar.

Series [5] relates to A. terreus. The series can be described thus: Agar diffusion antifungal bioactivity test. It is filed as cell-based. The conditions noted are these: Aspergillus terreus. On the procedure: as §2, §1
Series [6] has as its system C. albicans. Nature of the series: Agar diffusion antifungal bioactivity test. It is filed as cell-based. The conditions noted are these: Candida albicans. On the procedure:
as §2, §1

Series [7] concerns human umbilical vein endothelial cells HUVEC. The series can be described thus: Antiproliferative assay. It is filed as cell-based. On the procedure:
as §1

In series [8] the test system is human chronic myeloid leukemia cells K-562. The series can be described thus: Antiproliferative assay. Conditions: K562, K-562, antiproliferative. It is filed as cell-based. The protocol: as §1

In general, CC50 refers to the concentration giving 50% cytotoxicity. As usually defined, the MIC is the lowest concentration found to suppress growth. For orientation: GI50 means the concentration that inhibits growth by half. Higher therefore signals less potent growth inhibition.

The structures appear in SMILES notation. Converted amounts (≈) assume the structure as drawn. Starred links: 1 amine or outer side, 2 acyl side, 3 side chain; linkers in the order of their positions; H or OH if unused. Positions of bridges follow the written chain, without caps; N, C: chain ends. Non-standard residues stand in square brackets, D forms with d. Residues, ends and D or L forms follow the SMILES beside them. *: point of attachment. Tetradecanoyl(3R-OH) = CCCCCCCCCCC[C@@H](O)CC(=O)*; X1 = C/C=C(/N[*:1])C(=O)[*:2]; Dhb = C/C=C(\N)C(=O)O

Take `C/C=C1\NC(=O)[C@@H](Cc2ccc(O)cc2)NC(=O)[C@@H]([C@H](C)O)NC(=O)[C@@H](NC(=O)/C(=C\C)NC(=O)C[C@H](O)CCCCCCCCCCC)[C@@H](C)OC(=O)[C@H](Cc2c[nH]cn2)NC(=O)[C@H]([C@@H](C)O)NC(=O)CNC(=O)[C@@H](CCC(N)=O)NC1=O` [jagaricin] ({Tetradecanoyl(3R-OH)}-[X1]T[dT][dY][Dhb][dQ]GTH; ester 2-C): in series [1], the CC50 was determined as 3.8 µM. Further, in series [2], the “lesion on mushroom tissue” value is “caused a superficial lesion on mushroom tissue”. In series [3], the antibacterial activity result is on record as “little or no antibacterial activity”. Besides, the MIC in series [4] was 0.41 µM (≈ 0.484 µg/mL); in series [5], 0.28 µM (≈ 0.331 µg/mL); in series [6] it was 0.42 µM (≈ 0.496 µg/mL). For the same molecule, the GI50 in series [7] and in series [8] was 1 µM each time.
